Experimental data taken from article PMC9617622 (Journal of medicinal chemistry, 2021).

Tests used:
D3R [1] = molecular target: T1, D3R (Homo sapiens, UniProt P35462); conditions: for D2R/D3R preference (in words): D3R v. D2R binding; for D2R/D3R preference (in words) / binding affinity at D3R (in words): result in words; for Ki difference, O-alkylated v. N-alkylated linker with the same SP: D3R, 48 v. 15 and 49 v. 13; for decrease in binding affinity at D3R compared to eticlopride: relative to eticlopride
human D2L receptor = human D2L receptor (Homo sapiens, UniProt P14416); conditions: for binding affinity at D2R (in words): result in words; for decrease in binding affinity at D2R compared to eticlopride: relative to eticlopride
D3R [2] = molecular target: T1, D3R; conditions: result in words; compared to full agonist quinpirole and antagonist eticlopride

T1 sequence (P35462 whole entry): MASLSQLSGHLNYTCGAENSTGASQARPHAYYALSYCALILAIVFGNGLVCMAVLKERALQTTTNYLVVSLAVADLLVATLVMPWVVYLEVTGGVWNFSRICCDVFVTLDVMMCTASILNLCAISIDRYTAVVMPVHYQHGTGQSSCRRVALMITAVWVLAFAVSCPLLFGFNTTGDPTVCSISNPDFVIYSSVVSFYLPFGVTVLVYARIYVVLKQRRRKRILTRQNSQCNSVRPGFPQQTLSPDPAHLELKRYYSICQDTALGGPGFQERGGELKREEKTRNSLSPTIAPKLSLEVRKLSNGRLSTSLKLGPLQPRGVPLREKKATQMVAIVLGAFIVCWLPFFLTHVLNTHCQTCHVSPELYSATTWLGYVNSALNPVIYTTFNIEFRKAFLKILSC
Chain of human D2L receptor (P14416 whole entry): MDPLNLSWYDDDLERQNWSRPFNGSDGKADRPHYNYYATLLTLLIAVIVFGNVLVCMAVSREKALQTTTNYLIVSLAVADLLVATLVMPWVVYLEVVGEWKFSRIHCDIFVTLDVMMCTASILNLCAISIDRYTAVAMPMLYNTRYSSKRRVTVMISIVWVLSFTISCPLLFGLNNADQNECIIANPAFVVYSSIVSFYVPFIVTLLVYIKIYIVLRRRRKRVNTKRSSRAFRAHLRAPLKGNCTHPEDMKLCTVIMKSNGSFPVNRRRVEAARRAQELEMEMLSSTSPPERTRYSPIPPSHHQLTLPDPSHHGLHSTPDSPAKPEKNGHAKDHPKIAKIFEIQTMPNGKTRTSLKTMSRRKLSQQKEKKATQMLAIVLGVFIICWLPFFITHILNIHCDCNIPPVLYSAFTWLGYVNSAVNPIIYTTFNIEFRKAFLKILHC

For CCc1cc(Cl)c(OC)c(C(=O)NC[C@@H]2CCCN2CCCCNC(=O)c2cc3ccccc3o2)c1O [compound 13, (S)-N-(4-(2-((3-Chloro-5-ethyl-6-hydroxy-2-methoxybenzamido)methyl)pyrrolidin-1-yl)butyl) benzofuran-2-carboxamide], the “D2R/D3R preference (in words)” value (D3R [1]) was “modest D3R preference was not seen”.

For CCc1cc(Cl)c(OC)c(C(=O)NC[C@@H]2CCCN2CCCCOc2ccc3c(c2)NC(=O)CC3)c1O [compound 11, (S)-3-Chloro-5-ethyl-6-hydroxy-2-methoxy-N-((1-(4-((2-oxo-1,2,3,4-tetrahydroquinolin-7-yl)oxy)butyl)pyrrolidin-2-yl)methyl)benzamide], the “preference for D3R v. D2R” value (D3R [1]; ratio of Ki D2R to Ki D3R) was 3.6 fold.

With CCc1cc(Cl)c(OC)c(C(=O)NC[C@@H]2C[C@@H](OCCCCOCc3ccccc3)CN2)c1O [50b, N-(((2S,4R)-4-(4-(Benzyloxy)butoxy)pyrrolidin-2-yl)methyl)-3-chloro-5-ethyl-6-hydroxy-2-methoxybenzamide] the “binding affinity at D2R (in words)” value (human D2L receptor) was “low nanomolar range” and the “binding affinity at D3R (in words)” value (D3R [1]) was “low nanomolar range”.

For CCc1cc(Cl)c(OC)c(C(=O)NC[C@@H]2CCCN2CCc2c(C)nc3n(c2=O)CCCC3)c1O [compound 10, (S)-3-Chloro-5-ethyl-6-hydroxy-2-methoxy-N-((1-(2-(2-methyl-4-oxo-6,7,8,9-tetrahydro-4H-pyrido[1,2-a]pyrimidin-3-yl)ethyl)pyrrolidin-2-yl)methyl)benzamide], the “D2R/D3R preference (in words)” value (D3R [1]) was “equiactive at D2R and D3R”.

In the case of CCc1cc(Cl)c(OC)c(C(=O)NC[C@@H]2C[C@@H](OCCCCNC(=O)c3cc4ccccc4[nH]3)CN2CC)c1O [compound 48, N-(4-(((3R,5S)-5-((3-Chloro-5-ethyl-6-hydroxy-2-methoxybenzamido)methyl)-1-ethylpyrrolidin-3-yl)oxy)butyl)-1H-indole-2-carboxamide], the “Ki difference, O-alkylated v. N-alkylated linker with the same SP” value (D3R [1]) is reported as ~ 56 fold.

For CCc1cc(Cl)c(OC)c(C(=O)NC[C@@H]2CCCN2CC)c1O [eticlopride], the “functional efficacy at D3R (Go BRET activation)” value (D3R [2]) was “reference antagonist”.

CCc1cc(Cl)c(OC)c(C(=O)NC[C@@H]2C[C@@H](OCCCc3ccccc3)CN2)c1O [50a, 3-Chloro-5-ethyl-6-hydroxy-2-methoxy-N-(((2S,4R)-4-(3-phenylpropoxy)pyrrolidin-2-yl)methyl)benzamide] was tested, and the “binding affinity at D2R (in words)” value (human D2L receptor) was “low nanomolar range” and the “binding affinity at D3R (in words)” value (D3R [1]) was “low nanomolar range”.

In the case of CCc1cc(Cl)c(OC)c(C(=O)NC[C@@H]2C[C@@H](OCCCCO)CN2)c1O [compound 51, 3-Chloro-5-ethyl-6-hydroxy-N-(((2S,4R)-4-(4-hydroxybutoxy)pyrrolidin-2-yl)methyl)-2-methoxybenzamide], the “binding affinity at D2R (in words)” value (human D2L receptor) is reported as “low nanomolar range” and the “binding affinity at D3R (in words)” value (D3R [1]) is reported as “low nanomolar range”.

For CCc1cc(Cl)c(OC)c(C(=O)NC[C@@H]2CCCN2Cc2ccccc2)c1OCc1ccccc1 [compound 8, (S)-2-(Benzyloxy)-N-((1-benzylpyrrolidin-2-yl)methyl)-5-chloro-3-ethyl-6-methoxybenzamide], the “binding affinity at D2R (in words)” value (human D2L receptor) was “low affinity” and the “binding affinity at D3R (in words)” value (D3R [1]) was “low affinity”.

With CCc1cc(Cl)c(OC)c(C(=O)NC[C@@H]2C[C@@H](OCCCCNC(=O)c3cc4ccccc4o3)CN2CC)c1O [compound 49, N-(4-(((3R,5S)-5-((3-chloro-5-ethyl-6-hydroxy-2-methoxybenzamido)methyl)-1-ethylpyrrolidin-3-yl)oxy)butyl)benzofuran-2-carboxamide] the “Ki difference, O-alkylated v. N-alkylated linker with the same SP” value (D3R [1]) was ~ 31 fold.

In the case of CCc1cc(Cl)c(OC)c(C(=O)NC[C@@H]2CCCN2Cc2ccccc2)c1O [compound 7, (S)-N-((1-Benzylpyrrolidin-2-yl)methyl)-3-chloro-5-ethyl-6-hydroxy-2-methoxybenzamide], the “decrease in binding affinity at D2R compared to eticlopride” value (“decrease in binding affinity at D2R” below) (human D2L receptor) is reported as 1800 fold and the “decrease in binding affinity at D3R compared to eticlopride” value (shortened to “decrease in binding affinity at D3R”) (D3R [1]) is reported as 268 fold.

CCCN1CCC[C@H]1CNC(=O)c1c(O)c(CC)cc(Cl)c1OC [compound 6, (S)-3-Chloro-5-ethyl-6-hydroxy-2-methoxy-N-((1-propylpyrrolidin-2-yl)methyl)benzamide] was tested, and the “decrease in binding affinity at D2R” value (human D2L receptor) was 6 fold and the “decrease in binding affinity at D3R” value (D3R [1]) was 2.6 fold.

For CCc1cc(Cl)c(OC)c(C(=O)NC[C@@H]2CCCN2)c1O.Cl [compound 5, (S)-3-chloro-5-ethyl-6-hydroxy-2-methoxy-N-(pyrrolidin-2-ylmethyl)benzamide hydrochloride, reference compound], the “decrease in binding affinity at D2R” value (human D2L receptor) was 19 fold and the “decrease in binding affinity at D3R” value (D3R [1]) was 4 fold.
